Test results reported in ChEMBL document CHEMBL1150323, “Peptomeric analogues of trypsin inhibitor SFTI-1 isolated from sunflower seeds” (Bioorg Med Chem, 2008).
Values belong to the compound of their own block, whether it stands above or below them. Activity calls are given as the source filed them. The rule behind the calls is not given here. Positions of bridges follow the written chain, without caps; N, C: chain ends. Non-standard residues stand in square brackets, D forms with d. Residues, ends and D or L forms follow the SMILES beside them. Nphe = O=C(O)CNCc1ccccc1; Abu = CC[C@H](N)C(=O)O; Nlys = NCCCCNCC(=O)O

Tests used:
[1] = Proteolytic stability assessed as trypsin-mediated hydrolysis at pH 8.3 after 24 hrs by RP-HPLC; format: ADME; settings: read-out: Activity
Bos taurus [2] = species: Bos taurus; test: Inhibition of bovine alpha chymotrypsin assessed as residual activity after 3 hrs by spectrophotometry
[3] = Proteolytic stability assessed as half life of trypsin-mediated hydrolysis by RP-HPLC; format: ADME
[4] = target: T1, Serine protease 1 (Bos taurus) (UniProt P00760); test: Inhibition of bovine beta trypsin assessed as residual activity by spectrophotometry
T1 sequence (whole entry): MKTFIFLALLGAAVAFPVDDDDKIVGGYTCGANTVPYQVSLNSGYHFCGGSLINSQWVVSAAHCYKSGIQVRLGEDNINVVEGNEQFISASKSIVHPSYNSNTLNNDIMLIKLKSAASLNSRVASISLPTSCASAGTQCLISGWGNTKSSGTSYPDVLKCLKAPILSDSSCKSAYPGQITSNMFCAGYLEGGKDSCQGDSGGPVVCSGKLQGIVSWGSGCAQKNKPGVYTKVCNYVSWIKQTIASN

[5] = target: T1, Serine protease 1 (Bos taurus); test: Inhibition of bovine beta trypsin assessed as residual activity after 40 mins by spectrophotometry
Bos taurus [6] = species: Bos taurus; test: Inhibition of bovine alpha chymotrypsin assessed as residual activity by spectrophotometry
Bos taurus [7] = species: Bos taurus; test: Inhibition of bovine alpha chymotrypsin assessed as residual activity after 40 mins by spectrophotometry
[8] = target: T1, Serine protease 1 (Bos taurus); test: Inhibition of bovine beta trypsin assessed as residual activity after 60 mins by spectrophotometry

SMILES: CC[C@H](NC(=O)[C@H](CCCNC(=N)N)NC(=O)CN)C(=O)N[C@H](C(=O)N(CC(=O)N[C@@H](CO)C(=O)N[C@H](C(=O)N1CCC[C@H]1C(=O)N1CCC[C@H]1C(=O)N[C@H](C(=O)N[C@@H](CC)C(=O)N[C@@H](Cc1ccccc1)C(=O)N1CCC[C@H]1C(=O)N[C@@H](CC(=O)O)C(=O)O)[C@@H](C)CC)[C@@H](C)CC)Cc1ccccc1)[C@@H](C)O
metabolised at 24 h [1]: 7%

SMILES: CC[C@H](NC(=O)CNCCCCN)C(=O)N[C@H](C(=O)N(CCCCN)CC(=O)N[C@@H](CO)C(=O)N[C@H](C(=O)N1CCC[C@H]1C(=O)N1CCC[C@H]1C(=O)N[C@H](C(=O)N[C@@H](CC)C(=O)N[C@@H](Cc1ccccc1)C(=O)N1CCC[C@@H]1C(=O)N[C@@H](CC(=O)O)C(=O)O)[C@@H](C)CC)[C@@H](C)CC)[C@H](C)O
Activity [4]: inactive

SMILES: CC[C@H](NC(=O)[C@@H](NC(=O)[C@@H]1CCCN1C(=O)[C@@H]1CCCN1C(=O)[C@@H](NC(=O)[C@H](CO)NC(=O)CN(CCCCN)C(=O)[C@@H](NC(=O)[C@H](CC)NC(=O)[C@@H](N)CCCCN)[C@H](C)O)[C@@H](C)CC)[C@@H](C)CC)C(=O)N[C@@H](Cc1ccccc1)C(=O)N1CCC[C@H]1C(=O)N[C@@H](CC(=O)O)C(=O)O
Activity [4]: inactive

SMILES: CC[C@H](C)[C@@H]1NC(=O)[C@@H]2CCCN2C(=O)[C@@H]2CCCN2C(=O)[C@H]([C@@H](C)CC)NC(=O)[C@H](CO)NC(=O)CN(CCCCN)C(=O)[C@H]([C@H](C)O)NC(=O)[C@@H](NC(=O)[C@@H](N)CCCCN)CSSC[C@@H](C(=O)N[C@@H](Cc2ccccc2)C(=O)N2CCC[C@H]2C(=O)N[C@@H](CC(=O)O)C(=O)O)NC1=O
Ka [5]: 8 ×10⁷ /M

SMILES: CC[C@H](NC(=O)[C@H](CCCNC(=N)N)NC(=O)CN)C(=O)N[C@H](C(=O)N[C@@H](Cc1ccccc1)C(=O)N[C@@H](CO)C(=O)N[C@H](C(=O)N1CCC[C@H]1C(=O)N1CCC[C@H]1C(=O)N[C@H](C(=O)N[C@@H](CC)C(=O)N[C@@H](Cc1ccccc1)C(=O)N1CCC[C@H]1C(=O)N[C@@H](CC(=O)O)C(=O)O)[C@@H](C)CC)[C@@H](C)CC)[C@H](C)O
Activity (Bos taurus [6]): inactive

SMILES: CC[C@H](NC(=O)[C@H](CCCNC(=N)N)NC(=O)CN)C(=O)N[C@H](C(=O)N(CCCCN)CC(=O)N[C@@H](CO)C(=O)N[C@H](C(=O)N1CCC[C@H]1C(=O)N1CCC[C@H]1C(=O)N[C@H](C(=O)N[C@@H](CC)C(=O)N[C@@H](Cc1ccccc1)C(=O)N1CCC[C@H]1C(=O)N[C@@H](CC(=O)O)C(=O)O)[C@@H](C)CC)[C@@H](C)CC)[C@@H](C)O (H-GR[Abu]T[Nlys]SIPPI[Abu]FPD-OH)
half-life [3]: 1.1 h

SMILES: CC[C@H](NC(=O)[C@H](CCCNC(=N)N)NC(=O)CN)C(=O)N[C@H](C(=O)N(CC(=O)N[C@@H](CO)C(=O)N[C@H](C(=O)N1CCC[C@H]1C(=O)N1CCC[C@H]1C(=O)N[C@H](C(=O)N[C@@H](CC)C(=O)N[C@@H](Cc1ccccc1)C(=O)N1CCC[C@H]1C(=O)N[C@@H](CC(=O)O)C(=O)O)[C@@H](C)CC)[C@@H](C)CC)Cc1ccccc1)[C@H](C)O
Ka (Bos taurus [7]): 7 ×10⁷ /M

SMILES: CC[C@H](NC(=O)[C@H](CCCNC(=N)N)NC(=O)CN)C(=O)N[C@H](C(=O)N[C@@H](Cc1ccccc1)C(=O)N[C@@H](CO)C(=O)N[C@H](C(=O)N1CCC[C@H]1C(=O)N1CCC[C@H]1C(=O)N[C@H](C(=O)N[C@@H](CC)C(=O)N[C@@H](Cc1ccccc1)C(=O)N1CCC[C@H]1C(=O)N[C@@H](CC(=O)O)C(=O)O)[C@@H](C)CC)[C@@H](C)CC)[C@@H](C)O
half-life [3]: 1.25 h

Results, then the compound that gave them:

metabolised at 24 h [1]: 30% | Ka (Bos taurus [2]): 1.1 ×10¹⁰ /M | half-life [3]: 5.9 h
SMILES: CC[C@@H]1NC(=O)[C@H](CCCNC(=N)N)NC(=O)CNC(=O)[C@H](CC(=O)O)NC(=O)[C@@H]2CCCN2C(=O)[C@H](Cc2ccccc2)NC(=O)[C@H](CC)NC(=O)[C@H]([C@@H](C)CC)NC(=O)[C@@H]2CCCN2C(=O)[C@@H]2CCCN2C(=O)[C@H]([C@@H](C)CC)NC(=O)[C@H](CO)NC(=O)[C@H](Cc2ccccc2)NC(=O)[C@H]([C@@H](C)O)NC1=O (cyclo([Abu]FPDGR[Abu]TFSIPPI))

Ka [4]: 1 ×10⁸ /M
SMILES: CC[C@H](C)[C@@H]1NC(=O)[C@@H]2CCCN2C(=O)[C@@H]2CCCN2C(=O)[C@H]([C@@H](C)CC)NC(=O)[C@H](CO)NC(=O)CN(CCCCN)C(=O)[C@H]([C@@H](C)O)NC(=O)[C@@H](NC(=O)[C@H](CCCNC(=N)N)NC(=O)CN)CSSC[C@@H](C(=O)N[C@@H](Cc2ccccc2)C(=O)N2CCC[C@H]2C(=O)N[C@@H](CC(=O)O)C(=O)O)NC1=O

Ka (Bos taurus [6]): 3.8 ×10⁸ /M
SMILES: CC[C@H](C)[C@@H]1NC(=O)[C@@H]2CCCN2C(=O)[C@@H]2CCCN2C(=O)[C@H]([C@@H](C)CC)NC(=O)[C@H](CO)NC(=O)CN(Cc2ccccc2)C(=O)[C@H]([C@@H](C)O)NC(=O)[C@@H](NC(=O)[C@H](CCCNC(=N)N)NC(=O)CN)CSSC[C@@H](C(=O)N[C@@H](Cc2ccccc2)C(=O)N2CCC[C@H]2C(=O)N[C@@H](CC(=O)O)C(=O)O)NC1=O (H-GRCT[Nphe]SIPPICFPD-OH; disulfide 3-11)

half-life [3]: 3.03 h | Ka (Bos taurus [6]): 2 ×10⁹ /M
SMILES: CC[C@H](C)[C@@H]1NC(=O)[C@@H]2CCCN2C(=O)[C@@H]2CCCN2C(=O)[C@H]([C@@H](C)CC)NC(=O)[C@H](CO)NC(=O)[C@H](Cc2ccccc2)NC(=O)[C@H]([C@@H](C)O)NC(=O)[C@@H](NC(=O)[C@H](CCCNC(=N)N)NC(=O)CN)CSSC[C@@H](C(=O)N[C@@H](Cc2ccccc2)C(=O)N2CCC[C@H]2C(=O)N[C@@H](CC(=O)O)C(=O)O)NC1=O (H-GRCTFSIPPICFPD-OH; disulfide 3-11)

half-life [3]: 1.37 h
SMILES: CC[C@@H]1NC(=O)[C@H](CCCNC(=N)N)NC(=O)CNC(=O)[C@H](CC(=O)O)NC(=O)[C@@H]2CCCN2C(=O)[C@H](Cc2ccccc2)NC(=O)[C@H](CC)NC(=O)[C@H]([C@@H](C)CC)NC(=O)[C@@H]2CCCN2C(=O)[C@@H]2CCCN2C(=O)[C@H]([C@@H](C)CC)NC(=O)[C@H](CO)NC(=O)CN(CCCCN)C(=O)[C@H]([C@@H](C)O)NC1=O

Ka (Bos taurus [7]): 6.2 ×10⁷ /M
SMILES: CC[C@@H]1NC(=O)[C@H](CCCNC(=N)N)NC(=O)CNC(=O)[C@H](CC(=O)O)NC(=O)[C@@H]2CCCN2C(=O)[C@H](Cc2ccccc2)NC(=O)[C@H](CC)NC(=O)[C@H]([C@@H](C)CC)NC(=O)[C@@H]2CCCN2C(=O)[C@@H]2CCCN2C(=O)[C@H]([C@@H](C)CC)NC(=O)[C@H](CO)NC(=O)CN(Cc2ccccc2)C(=O)[C@H]([C@H](C)O)NC1=O

Ka [8]: 1.9 ×10⁸ /M
SMILES: CC[C@@H]1NC(=O)[C@H](CCCNC(=N)N)NC(=O)CNC(=O)[C@H](CC(=O)O)NC(=O)[C@@H]2CCCN2C(=O)[C@H](Cc2ccccc2)NC(=O)[C@H](CC)NC(=O)[C@H]([C@@H](C)CC)NC(=O)[C@@H]2CCCN2C(=O)[C@@H]2CCCN2C(=O)[C@H]([C@@H](C)CC)NC(=O)[C@H](CO)NC(=O)CN(CCCCN)C(=O)[C@H]([C@H](C)O)NC1=O

half-life [3]: 7.25 h | Ka (Bos taurus [6]): 4.9 ×10⁶ /M
SMILES: CC[C@H](C)[C@@H]1NC(=O)[C@@H]2CCCN2C(=O)[C@@H]2CCCN2C(=O)[C@H]([C@@H](C)CC)NC(=O)[C@H](CO)NC(=O)[C@H](CCCCN)NC(=O)[C@H]([C@@H](C)O)NC(=O)[C@@H]2CSSC[C@H](NC1=O)C(=O)N[C@@H](Cc1ccccc1)C(=O)N1CCC[C@H]1C(=O)N[C@@H](CC(=O)O)C(=O)NCC(=O)N[C@@H](CCCNC(=N)N)C(=O)N2

half-life [3]: 5.87 h
SMILES: CC[C@@H]1NC(=O)[C@H](CCCNC(=N)N)NC(=O)CNC(=O)[C@H](CC(=O)O)NC(=O)[C@@H]2CCCN2C(=O)[C@H](Cc2ccccc2)NC(=O)[C@H](CC)NC(=O)[C@H]([C@@H](C)CC)NC(=O)[C@@H]2CCCN2C(=O)[C@@H]2CCCN2C(=O)[C@H]([C@@H](C)CC)NC(=O)[C@H](CO)NC(=O)CN(Cc2ccccc2)C(=O)[C@H]([C@@H](C)O)NC1=O

half-life [3]: 2.75 h | Ka [4]: 9.9 ×10⁹ /M | Ka (Bos taurus [6]): 4.9 ×10⁶ /M
SMILES: CC[C@H](C)[C@@H]1NC(=O)[C@@H]2CCCN2C(=O)[C@@H]2CCCN2C(=O)[C@H]([C@@H](C)CC)NC(=O)[C@H](CO)NC(=O)[C@H](CCCCN)NC(=O)[C@H]([C@@H](C)O)NC(=O)[C@@H](NC(=O)[C@H](CCCNC(=N)N)NC(=O)CN)CSSC[C@@H](C(=O)N[C@@H](Cc2ccccc2)C(=O)N2CCC[C@H]2C(=O)N[C@@H](CC(=O)O)C(=O)O)NC1=O
